From patent US8415469B2, “Compounds and methods for kinase modulation, and indications therefor” (Plexxikon Inc., priority 2005, dated 2013)

Assays:
Type in all cases: biochemical
[1] = biological target: T1, Kit (Homo sapiens, UniProt P10721); test: AlphaScreen kinase assay, Kit; conditions: read-out: IC50, activity toward kinase Kit
T1 construct: P1332.N6 BI PTP KIT M552-K948-X COD; His6 (N); made in house; host or cells: E. coli (PTP1B co-expressed)

[2] = biological target: T2, Fak (Homo sapiens, UniProt Q05397); test: AlphaScreen kinase assay, Fak; conditions: read-out: IC50, activity toward kinase Fak
T2 construct: P1358.pFastBacHtb FAK S411-Q686-X; His6 with pFastBacHTb leader (TEV site) (N); made in house; host or cells: Sf9 (baculovirus)

[3] = biological target: T3, Kdr (Homo sapiens, UniProt P35968); test: Z'-Lyte FRET kinase assay (Invitrogen), Kdr; conditions: read-out: IC50, activity toward kinase Kdr
T3 construct: purchased Invitrogen (assay run by Invitrogen)

[4] = biological target: T4, FGFR1 (Homo sapiens, UniProt P11362, C488A/C584S); test: AlphaScreen kinase assay, FGFR1; conditions: read-out: IC50, activity toward kinase FGFR
T4 construct: P1351.pET N6 BI-PTP FGFR A458-E765-X C488A, C584S; made in house; host or cells: E. coli (PTP1B co-expressed)
T4 sequence (P11362 458-765 C488A/C584S): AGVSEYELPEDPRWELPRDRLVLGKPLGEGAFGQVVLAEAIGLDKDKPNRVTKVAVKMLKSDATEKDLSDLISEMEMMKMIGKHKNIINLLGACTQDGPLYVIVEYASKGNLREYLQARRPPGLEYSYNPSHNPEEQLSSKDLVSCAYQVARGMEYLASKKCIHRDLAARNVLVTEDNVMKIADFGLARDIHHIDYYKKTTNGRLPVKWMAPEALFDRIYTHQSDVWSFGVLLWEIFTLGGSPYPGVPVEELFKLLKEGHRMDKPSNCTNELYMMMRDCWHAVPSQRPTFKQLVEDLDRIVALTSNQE

[5] = biological target: T5, Fms (Homo sapiens, UniProt P07333); test: AlphaScreen kinase assay, Fms; conditions: read-out: IC50, activity toward kinase Fms
T5 construct: purchased Upstate Biotechnology
T5 sequence (P07333 20-972): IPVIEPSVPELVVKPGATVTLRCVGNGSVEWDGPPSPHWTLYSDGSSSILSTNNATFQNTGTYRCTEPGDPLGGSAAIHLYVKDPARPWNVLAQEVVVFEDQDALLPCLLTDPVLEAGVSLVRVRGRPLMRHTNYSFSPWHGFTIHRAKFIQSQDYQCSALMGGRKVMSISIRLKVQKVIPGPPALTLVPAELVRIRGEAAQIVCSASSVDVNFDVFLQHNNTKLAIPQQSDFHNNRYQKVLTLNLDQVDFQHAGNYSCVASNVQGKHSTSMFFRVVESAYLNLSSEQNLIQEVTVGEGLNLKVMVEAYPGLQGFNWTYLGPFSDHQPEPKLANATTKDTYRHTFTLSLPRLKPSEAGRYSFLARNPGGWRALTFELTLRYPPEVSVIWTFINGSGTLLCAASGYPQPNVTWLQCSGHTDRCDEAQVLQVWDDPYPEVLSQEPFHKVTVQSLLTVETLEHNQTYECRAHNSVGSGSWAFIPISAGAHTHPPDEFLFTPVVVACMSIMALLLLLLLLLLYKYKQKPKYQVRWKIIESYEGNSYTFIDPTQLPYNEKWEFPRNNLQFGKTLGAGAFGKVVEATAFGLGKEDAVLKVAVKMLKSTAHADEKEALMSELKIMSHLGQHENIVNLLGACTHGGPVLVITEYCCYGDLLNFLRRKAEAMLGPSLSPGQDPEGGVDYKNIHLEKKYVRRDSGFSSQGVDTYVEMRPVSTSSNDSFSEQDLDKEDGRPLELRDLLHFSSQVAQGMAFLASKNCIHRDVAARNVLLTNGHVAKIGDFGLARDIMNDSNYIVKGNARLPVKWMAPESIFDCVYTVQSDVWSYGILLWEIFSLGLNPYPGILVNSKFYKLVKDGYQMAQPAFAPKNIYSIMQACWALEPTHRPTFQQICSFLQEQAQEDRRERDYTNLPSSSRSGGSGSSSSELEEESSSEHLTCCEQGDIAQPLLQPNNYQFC

[6] = biological target: T6, B-Raf V600E (Homo sapiens, UniProt P15056, V600E); test: AlphaScreen kinase assay, B-Raf V600E; conditions: read-out: IC50, activity toward kinase B-Raf V600E
T6 construct: P4254. pFastBacBD-CDC37 BRAF D437-K722-X, V600E; His6 with pFastBac HT leader (TEV site) (N); made in house; host or cells: Sf9 (baculovirus; chaperone CDC37 co-expressed)
T6 sequence (P15056 with tags, fused parts or gaps V600E): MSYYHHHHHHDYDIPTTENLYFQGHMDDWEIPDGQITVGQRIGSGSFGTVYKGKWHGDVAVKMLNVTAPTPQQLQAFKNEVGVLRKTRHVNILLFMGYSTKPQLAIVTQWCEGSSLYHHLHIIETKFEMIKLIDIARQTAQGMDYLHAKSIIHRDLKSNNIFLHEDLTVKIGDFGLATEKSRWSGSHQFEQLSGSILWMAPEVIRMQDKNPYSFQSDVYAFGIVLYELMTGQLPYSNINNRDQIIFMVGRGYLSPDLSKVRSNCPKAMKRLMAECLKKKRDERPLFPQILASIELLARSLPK

[7] = biological target: T7, Ret (Homo sapiens, UniProt P07949); test: AlphaScreen kinase assay, Ret; conditions: read-out: IC50, activity toward kinase Ret
T7 construct: P1378.pET-SF BI-PTP RET H661-R1012 HIS; made in house
T7 sequence (P07949 with tags, fused parts or gaps): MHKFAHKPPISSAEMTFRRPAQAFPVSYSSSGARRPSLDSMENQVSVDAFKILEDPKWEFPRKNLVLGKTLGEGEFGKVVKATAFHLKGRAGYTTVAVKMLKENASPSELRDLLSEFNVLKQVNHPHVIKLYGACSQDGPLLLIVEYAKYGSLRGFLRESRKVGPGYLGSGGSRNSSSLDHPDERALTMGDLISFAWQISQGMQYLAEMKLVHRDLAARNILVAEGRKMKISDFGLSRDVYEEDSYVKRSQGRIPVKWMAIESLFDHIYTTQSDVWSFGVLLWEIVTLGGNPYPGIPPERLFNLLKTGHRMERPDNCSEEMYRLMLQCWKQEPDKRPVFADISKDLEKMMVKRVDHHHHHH

[8] = biological target: T8, B-Raf (Homo sapiens, UniProt P15056); test: AlphaScreen kinase assay, B-Raf; conditions: read-out: IC50, activity toward kinase B-Raf
T8 construct: purchased Upstate Biotechnology
T8 sequence (P15056 whole entry): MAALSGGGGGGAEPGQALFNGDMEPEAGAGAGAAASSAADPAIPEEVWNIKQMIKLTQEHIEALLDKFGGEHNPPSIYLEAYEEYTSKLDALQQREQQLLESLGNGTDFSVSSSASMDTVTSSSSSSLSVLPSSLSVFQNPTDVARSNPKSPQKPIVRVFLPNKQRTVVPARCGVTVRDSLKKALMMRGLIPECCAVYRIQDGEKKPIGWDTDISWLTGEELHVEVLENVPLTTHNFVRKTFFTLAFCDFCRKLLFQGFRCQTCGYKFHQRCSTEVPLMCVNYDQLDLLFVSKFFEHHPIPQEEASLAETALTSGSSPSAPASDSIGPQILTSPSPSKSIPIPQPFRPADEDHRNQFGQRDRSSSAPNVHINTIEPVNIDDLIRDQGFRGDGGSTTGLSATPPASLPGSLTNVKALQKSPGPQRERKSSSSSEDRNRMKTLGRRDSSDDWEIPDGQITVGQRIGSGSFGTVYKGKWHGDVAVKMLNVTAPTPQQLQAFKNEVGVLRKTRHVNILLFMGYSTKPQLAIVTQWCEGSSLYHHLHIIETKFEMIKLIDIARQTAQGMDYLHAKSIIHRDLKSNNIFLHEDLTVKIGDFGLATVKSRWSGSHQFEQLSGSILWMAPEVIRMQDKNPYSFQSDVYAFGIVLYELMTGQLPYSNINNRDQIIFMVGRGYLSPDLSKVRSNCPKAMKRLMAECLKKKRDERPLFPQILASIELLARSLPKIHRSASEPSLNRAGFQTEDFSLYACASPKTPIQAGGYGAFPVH

[9] = biological target: T9, Src (Homo sapiens, UniProt P12931); test: AlphaScreen kinase assay, Src; conditions: read-out: IC50, activity toward kinase Src
T9 construct: P1144. pET-N6 BI-PTP SRC V86-L536-X; made in house
T9 sequence (P12931 with tags, fused parts or gaps): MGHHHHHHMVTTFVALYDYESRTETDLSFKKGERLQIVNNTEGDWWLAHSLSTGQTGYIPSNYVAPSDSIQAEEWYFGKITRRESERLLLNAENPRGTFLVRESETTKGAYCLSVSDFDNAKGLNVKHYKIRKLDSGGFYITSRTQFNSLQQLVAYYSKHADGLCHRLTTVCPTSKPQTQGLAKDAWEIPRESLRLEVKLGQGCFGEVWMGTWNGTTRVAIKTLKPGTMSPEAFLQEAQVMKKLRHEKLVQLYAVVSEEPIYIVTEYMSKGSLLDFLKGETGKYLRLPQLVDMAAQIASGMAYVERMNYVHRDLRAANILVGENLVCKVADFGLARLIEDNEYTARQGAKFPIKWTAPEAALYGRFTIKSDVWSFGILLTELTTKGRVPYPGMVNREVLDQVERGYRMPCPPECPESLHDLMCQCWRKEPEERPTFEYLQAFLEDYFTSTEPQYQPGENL
Description: AlphaScreen assay was used to screen additional kinases. The assay is similarly dependent on the phosphorylation of a peptide substrate. In this assay, an antibody that recognizes phosphorylated substrate is bound to an acceptor bead. The peptide substrate is attached to biotin, which binds to a donor head that contains streptavidin. Thus phosphorylated substrate is bound by antibody and streptavidin, bringing the donor and acceptor heads into close proximity when kinase is not inhibited. The donor produces singlet oxygen which results in emission from the acceptor when they are in close proximity. Conversely, when kinase is inhibited, the donor and acceptor beads are not associated and the emission from the acceptor is reduced.
AlphaScreen assays were done using compounds dissolved in DMSO to a concentration of 20 mM. The compounds were diluted accordingly to the desired final concentrations in each sample well, using 1:3 serial dilution for a total of 8 concentration points. Plates were prepared such that each kinase reaction is 20 μl in 1× kinase buffer, 5% DMSO and 10 μM ATP. After incubation of the kinase reaction for 1 hour at room temperature, 5 μl of donor beads in stop buffer (50 mM EDTA in 1× kinase buffer) was added, the sample was mixed and incubated for 20 minutes at room temperature before adding 5 μl of acceptor beads in stop buffer. The samples were incubated for 60 minutes at room temperature and the signal per well was read on AlphaQuest reader.

[10] = biological target: T10, Jnk1 (Homo sapiens, UniProt P45983); test: AlphaScreen kinase assay, Jnk1; conditions: read-out: IC50, activity toward kinase Jnk1
T10 construct: purchased Upstate Biotechnology
T10 sequence (P45983 whole entry): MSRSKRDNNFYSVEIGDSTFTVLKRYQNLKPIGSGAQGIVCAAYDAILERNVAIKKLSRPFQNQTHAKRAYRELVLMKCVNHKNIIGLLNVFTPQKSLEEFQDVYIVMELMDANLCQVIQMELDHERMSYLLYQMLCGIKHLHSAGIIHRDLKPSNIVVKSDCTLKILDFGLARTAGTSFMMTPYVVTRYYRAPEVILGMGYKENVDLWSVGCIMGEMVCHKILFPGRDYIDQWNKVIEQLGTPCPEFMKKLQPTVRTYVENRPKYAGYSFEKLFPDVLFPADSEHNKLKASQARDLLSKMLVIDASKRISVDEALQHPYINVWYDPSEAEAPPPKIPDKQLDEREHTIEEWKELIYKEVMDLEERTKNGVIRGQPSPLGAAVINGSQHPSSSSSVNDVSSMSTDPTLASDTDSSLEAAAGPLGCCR

[11] = biological target: T11, Jnk3 (Homo sapiens, UniProt P53779); test: AlphaScreen kinase assay, Jnk3; conditions: read-out: IC50, activity toward kinase Jnk3
T11 construct: purchased Upstate Biotechnology
T11 sequence (P53779 whole entry): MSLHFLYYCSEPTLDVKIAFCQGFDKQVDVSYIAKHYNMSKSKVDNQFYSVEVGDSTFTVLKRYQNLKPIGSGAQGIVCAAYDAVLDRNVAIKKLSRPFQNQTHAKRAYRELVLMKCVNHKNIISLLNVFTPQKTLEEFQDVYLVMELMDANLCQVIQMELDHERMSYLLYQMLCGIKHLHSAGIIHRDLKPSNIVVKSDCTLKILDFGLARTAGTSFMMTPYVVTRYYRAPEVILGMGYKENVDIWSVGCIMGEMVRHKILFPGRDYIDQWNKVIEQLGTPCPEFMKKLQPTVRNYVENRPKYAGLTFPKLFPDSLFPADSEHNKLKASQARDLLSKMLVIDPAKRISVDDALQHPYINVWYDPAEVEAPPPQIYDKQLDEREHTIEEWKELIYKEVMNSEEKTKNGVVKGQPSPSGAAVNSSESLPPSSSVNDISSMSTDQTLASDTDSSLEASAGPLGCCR

[12] = biological target: T12, c-Raf-1 (Homo sapiens, UniProt P04049); test: AlphaScreen kinase assay, c-Raf-1; conditions: read-out: IC50, activity toward kinase c-Raf-1
T12 construct: purchased Upstate Biotechnology
T12 sequence (P04049 whole entry): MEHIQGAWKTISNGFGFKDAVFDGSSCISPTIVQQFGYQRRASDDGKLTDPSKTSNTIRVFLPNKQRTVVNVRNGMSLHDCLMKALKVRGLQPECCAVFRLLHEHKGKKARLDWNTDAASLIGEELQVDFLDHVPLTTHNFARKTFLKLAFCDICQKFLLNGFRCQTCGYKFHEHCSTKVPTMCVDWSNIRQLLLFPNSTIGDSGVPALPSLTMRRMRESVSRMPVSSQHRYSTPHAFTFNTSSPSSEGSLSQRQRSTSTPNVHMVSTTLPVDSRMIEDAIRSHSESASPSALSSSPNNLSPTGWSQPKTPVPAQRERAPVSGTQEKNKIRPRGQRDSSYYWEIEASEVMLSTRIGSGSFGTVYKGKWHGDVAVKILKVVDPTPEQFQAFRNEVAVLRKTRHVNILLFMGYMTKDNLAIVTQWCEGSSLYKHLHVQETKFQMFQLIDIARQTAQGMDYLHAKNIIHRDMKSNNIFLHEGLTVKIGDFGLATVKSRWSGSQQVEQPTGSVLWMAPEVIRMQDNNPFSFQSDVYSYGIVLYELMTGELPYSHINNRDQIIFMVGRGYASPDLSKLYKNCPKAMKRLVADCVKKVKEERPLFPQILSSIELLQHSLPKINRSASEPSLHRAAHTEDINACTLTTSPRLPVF

[13] = biological target: T13, Flt1 (Homo sapiens, UniProt P17948); test: AlphaScreen kinase assay, Flt1; conditions: read-out: IC50, activity toward kinase Flt1
T13 construct: P1826.pETN6 BI-PTP FLT1 M799-D1165-X WT; His6 (N); made in house; host or cells: E. coli (PTP1B co-expressed)
T13 sequence (P17948 with tags, fused parts or gaps): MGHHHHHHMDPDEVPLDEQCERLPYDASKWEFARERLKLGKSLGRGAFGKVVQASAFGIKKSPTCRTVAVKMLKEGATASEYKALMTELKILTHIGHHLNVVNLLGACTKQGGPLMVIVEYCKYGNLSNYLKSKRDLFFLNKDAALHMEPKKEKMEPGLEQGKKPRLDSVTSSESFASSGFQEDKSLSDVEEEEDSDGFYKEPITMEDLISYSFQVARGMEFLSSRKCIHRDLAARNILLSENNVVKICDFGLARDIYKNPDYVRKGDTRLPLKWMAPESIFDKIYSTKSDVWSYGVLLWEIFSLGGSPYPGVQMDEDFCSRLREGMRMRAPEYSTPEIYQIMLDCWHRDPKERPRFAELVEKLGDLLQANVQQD

Measured: IC50

T1 sequence (P10721 with tags, fused parts or gaps): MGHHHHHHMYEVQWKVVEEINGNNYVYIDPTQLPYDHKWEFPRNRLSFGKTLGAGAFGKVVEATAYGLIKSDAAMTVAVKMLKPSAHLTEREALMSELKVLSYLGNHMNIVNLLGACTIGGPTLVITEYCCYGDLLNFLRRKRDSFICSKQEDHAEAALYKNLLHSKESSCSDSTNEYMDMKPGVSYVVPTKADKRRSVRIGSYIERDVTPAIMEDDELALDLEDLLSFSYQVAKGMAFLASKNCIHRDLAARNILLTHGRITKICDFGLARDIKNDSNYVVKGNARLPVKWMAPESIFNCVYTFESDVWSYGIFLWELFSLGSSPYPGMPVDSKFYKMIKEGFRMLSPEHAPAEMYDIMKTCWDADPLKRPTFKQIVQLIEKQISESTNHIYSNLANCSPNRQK

O=C(c1ccccc1F)c1c[nH]c2ncc(Br)cc12 [Compound P-0293]
not listed: [9] | [10] | [11] | [12] | [13]
≤ 10 µM: all other assays above

CCCCS(=O)(=O)Nc1ccc(F)c(C(=O)c2c[nH]c3ncc(Br)cc23)c1F [Compound P-1263, Butane-1-sulfonic acid [3-(5-bromo-1H-pyrrolo[2,3-b]pyridine-3-carbonyl)-2,4-difluoro-phenyl]-amide]
≤ 10 µM: [1] | [2] | [9] | [4] | [5] | [6] | [8]

CCCCS(=O)(=O)Nc1ccc(F)c(C(=O)c2c[nH]c3ncc(OC)cc23)c1F [Compound P-1264, Butane-1-sulfonic acid [2,4-difluoro-3-(5-methoxy-1H-pyrrolo[2,3-b]pyridine-3-carbonyl)-phenyl]-amide]
≤ 10 µM: [1] | [2] | [9] | [4] | [5] | [6] | [8]

COc1ccc(Cc2c[nH]c3ncc(-c4cccc(C(N)=O)c4)cc23)c(F)c1 [Compound P-1341]
≤ 10 µM: [1] | [2] | [4] | [5] | [6] | [8]

c1cc2ccc(Nc3ccc(N4CCCCC4)cc3)nc2[nH]1 [Compound P-1359, (4-Piperidin-1-yl-phenyl)-(1H-pyrrolo[2,3-b]pyridin-6-yl)-amine]
≤ 10 µM: [2] | [10] | [11]

CCCS(=O)(=O)Nc1ccc(F)c(Cc2c[nH]c3ncc(Cl)cc23)c1F [Compound P-1396]
≤ 10 µM: [1] | [2] | [9] | [12] | [4] | [6]

CN(c1ccc(F)c(C(O)c2c[nH]c3ncc(-c4cccnc4)cc23)c1F)S(=O)(=O)c1ccc(C(F)(F)F)cc1 (stereo not shown) [Compound P-1400]
≤ 10 µM: [1] | [2] | [10] | [5] | [11]

O=[N+]([O-])c1cccc(Cc2c[nH]c3ncc(-c4cccnc4)cc23)c1 [Compound P-1402, 3-(3-nitro-benzyl)-5-pyridin-3-yl-1H-pyrrolo[2,3-b]pyridine]
≤ 10 µM: [1] | [2] | [10] | [4] | [5] | [6]

COCCOc1ccc(F)c(C(O)c2c[nH]c3ncc(Br)cc23)c1F (stereo not shown) [Compound P-1452]
≤ 10 µM: [1] | [2] | [12] | [4] | [5] | [6] | [8]

COCCOc1ccc(F)c(C(=O)c2c[nH]c3ncc(-c4cccnc4)cc23)c1F [Compound P-1456, [2,6-Difluoro-3-(2-methoxy-ethoxy)-phenyl]-(5-pyridin-3-yl-1H-pyrrolo[2,3-b]pyridin-3-yl)-methanone]
not listed: [3] | [7] | [9] | [11] | [13]
≤ 10 µM: all other assays above

O=C(Nc1ccc(F)c(C(=O)c2c[nH]c3ncc(Br)cc23)c1F)OCc1ccccc1 [Compound P-1457]
≤ 10 µM: [13] | [1] | [2] | [9] | [5] | [6] | [8]

COCCOc1ccc(F)c(Cc2c[nH]c3ncc(-c4cccnc4)cc23)c1F [Compound P-1458]
not listed: [3] | [7] | [9] | [13]
≤ 10 µM: all other assays above

Brc1cnc2[nH]cc(Cc3ccc4c(c3)OCCO4)c2c1 [Compound P-1474, 5-Bromo-3-(2,3-dihydro-benzo[1,4]dioxin-6-ylmethyl)-1H-pyrrolo[2,3-b]pyridine]
≤ 10 µM: [1] | [2] | [4] | [5] | [6]

Clc1cccc(Cl)c1Cc1c[nH]c2ncc(-c3cccnc3)cc12 [Compound P-1478, 3-(2,6-Dichloro-benzyl)-5-pyridin-3-yl-1H-pyrrolo[2,3-b]pyridine]
≤ 10 µM: [1] | [2] | [9] | [4] | [5] | [6]

FC(F)(F)Oc1ccc(Nc2c[nH]c3ncccc23)cc1 [Compound P-1492, (1H-Pyrrolo[2,3-b]pyridin-3-yl)-(4-trifluoromethoxy-phenyl)-amine]
≤ 10 µM: [13] | [2] | [5]

c1ccc(Oc2ccc(Nc3c[nH]c4ncccc34)cc2)cc1 [Compound P-1495, (4-Phenoxy-phenyl)-(1H-pyrrolo[2,3-b]pyridin-3-yl)-amine]
≤ 10 µM: [13] | [1] | [2] | [9] | [5] | [6]

Clc1cc(Cl)cc(Nc2c[nH]c3ncccc23)c1 [Compound P-1502, (3,5-Dichloro-phenyl)-(1H-pyrrolo[2,3-b]pyridin-3-yl)-amine]
≤ 10 µM: [13] | [1] | [2] | [5]
